This note sets out measurements from a melting point compilation (Tetko et al.; mined from patent text by program, amines drawn as free bases though some values may be those of a salt).

Residues, ends and D or L forms follow the SMILES beside them. *: point of attachment. Cbz = O=C(OCc1ccccc1)*

The term melting point denotes the temperature, or range, at which the solid turns liquid. Compound `N=C(N)NCCCC(NC(=O)C1CCCN1C(=O)OCc1ccccc1)C(=O)O` (stereo not drawn) (Cbz-Pro-Arg-OH; configuration not given here) displayed a melting point of 137 to 140 °C.
With `CC(C)CSc1c(-c2ccc(S(C)(=O)=O)cc2)cnn(CC(F)(F)F)c1=O`, the melting point was in the range of 135 to 138 °C.
With `CC(=Nc1ccccc1)NC(=S)NCc1cccnc1` the figure was 143 to 144 °C; with `CCCCCCCC(CCCCCCCCC(CCCCCCC)NC(C)=O)NC(C)=O` (centres undefined), 158 to 162 °C; with `Cn1ccc2c1CCN1C(=O)CCC21` (centres undefined), 122 to 125 °C.
With `Nc1nc(=O)n(C(=S)Oc2ccccc2)cc1F` the figure was 113 to 116 °C.
As for `N=C(NC(=O)Nc1ccc([N+](=O)[O-])cc1)c1ccccc1`, the figure is 188 to 191 °C; as for `CC(C)c1nc(-n2cnc3ccccc32)sc1/C=C/C(=O)O`, 262 to 264 °C.
For `COc1ccccc1OCC(O)CCCl` (centres undefined), the melting point was in the range of 48 to 50 °C.
With `NC(=O)N(O)CCOc1ccc2c(c1)CCN(CCCc1ccc(F)cc1)C2=O` the figure was 138 to 140 °C; with `Cc1cc(C(F)(F)F)ccc1NC(=O)c1c(C)cccc1NC(=O)C(C)C`, > 230 °C; with `CCCCc1nc(C(=O)CC)c(C#N)[nH]1`, 84 to 85 °C.
On to `COC(=O)C(C)(C)OCC#Cc1cc(C(F)(F)F)ccc1NS(=O)(=O)c1ccc2nc(NC(C)=O)sc2c1`, for which the melting point was 104 to 106 °C.
The compound `C#Cc1cc(C)c(C2=C(O)C3(CCN(OC)CC3)N(C)C2=O)c(C)c1` registered a melting point of 258 to 260 °C.
In turn, `CNC(=O)c1cc(-c2ccc(OC)cc2)nn(C)c1=O` showed a melting point of 150 to 151 °C.
With `CC(C)(C)OC(=O)N1CCn2c(C(=O)N[C@@H](Cc3ccccc3)[C@H](O)CNC3(c4cccc(C(F)(F)F)c4)CC3)cc(C(=O)O)c2C1` the figure was 134 °C; with `CC1C(=O)CSCC1=O`, 131 to 133 °C.
As for `CCCOc1ccc(Br)cc1-c1nc2c(CCC)nn(C)c2c(=O)[nH]1`, the figure is 117 to 118 °C; as for `CCOC(=O)c1ccc(C(F)(F)F)cc1SC`, 44 to 45 °C; as for `CC(C)C(=O)Nc1ccc(-c2c[nH]c(=O)cn2)cc1`, 280 °C.
Take `Cc1noc(NS(=O)(=O)c2ccccc2-c2ccccc2)c1C`: the melting point lay in the range of 154 to 155 °C.
With `COc1cc2ncc(C#N)c(Nc3ccc(C(F)(F)F)cc3)c2cc1OC` the figure was 116 to 118 °C; with `Cc1cccc(-c2ccnc3c(C(=O)N=CN(C)C)cnn23)c1`, 165 to 166 °C; with `O=C(O)CCC(=NO)c1ccc2c3c(oc2c1)CCCC3`, 148 to 150 °C.
With `Cc1[nH]ncc1C(=O)Nc1ccc(OCC(C)(C)C)c(C#N)c1` the figure was 133 to 134 °C; with `O=C1CCC(N2Cc3c(OCC4Cc5ccccc5O4)cccc3C2=O)C(=O)N1` (centres undefined), 258 to 260 °C.
On to `O=C(c1ccc(CBr)cc1)c1c(Cl)cccc1Cl`, for which the melting point is 126 to 130 °C.
As for `O=C1CCC(N2CCN(Cc3ccccc3)CC2)CC1`, the figure is 83 to 85 °C.
As for `CC(C)N1C(=O)N(c2ccc(F)cc2)CSC1=NC(C)(C)C`, the melting point was in the range of 109 to 110 °C.
`N=C(Nc1cc(Cl)cc(NC(=O)/C=C/c2ccccc2Cl)c1)c1cccs1` returned a melting point of 123 to 124 °C.
In turn, `CCOP(=O)(Cc1ccccc1NC(=O)C1=Cc2cc(C3CCCCC3)ccc2CC1)OCC` returned a melting point of 102 to 103 °C.
As for `CO/N=C(\C(=O)OCCSc1nc2ccccc2s1)c1csc(NC=O)n1`, the figure is 172 to 173 °C; as for `CCOC(=O)Cn1c(=O)c(=O)[nH]c2cc(C(F)(F)F)c(-n3ccc(C=NO)c3)cc21`, > 250 °C.
`COC(=O)COc1cccc2c(O)c(C(C)=O)ccc12` returned a melting point of 130 to 135 °C.
`CC1CC2=CC(=O)CCC2(C)C2C(=O)CC3(C)C(=O)CCC3C12` (centres undefined) returned a melting point of 235 to 237 °C.
The compound `Cc1ccnc2c([N+](=O)[O-])cc(Cc3cnc(N)nc3N)cc12` registered a melting point of 256 to 258 °C.
Consider `COc1ccc2c(n1)c(CCNC(C)=O)c1n2CCCC1`, for which the melting point fell in the range of 89 to 90 °C.
As for `Nc1ccc(-n2ccn(-c3ccc(OC(F)(F)C(F)F)cc3)c2=O)cc1`, the figure is 150 to 151 °C.
`Cc1ccc(C(=O)C2=C(O)C(=O)N(c3ccc(C(F)(F)F)cn3)C2c2ccc(C(C)C)cc2)cc1` (centres undefined): the melting point lay within 255 to 257 °C.
With `CCNc1nc(C)c(-c2ccnc(Nc3cccc(S(=O)(=O)NCc4ccccc4)c3)n2)s1` the figure was 204 to 205 °C; with `COC(=O)CCCC#CCC1C(=O)CCCC1=O`, 108 to 110 °C; with `NC(=O)c1c(N)oc2ccccc2c1=O`, 264 to 266 °C.
As for `CCCCc1c(/C=C/C(=O)Oc2ccc([N+](=O)[O-])cc2)ccc2ccc(OC)cc12`, the figure is 114 to 115 °C; as for `COC(=O)N1CC(=O)Nc2cccc(F)c21`, 170 to 172 °C; as for `COc1ccc(C2=C(NC(=O)Nc3c(C)cccc3C(C)C)CN(C)c3ccc(Cl)cc32)cc1OC`, 200 to 201 °C.
`Cc1nc2c3c(ccn2c1C)[C@H](O)[C@](O)(Cc1ccccc1)[C@@H](c1ccccc1)N3` returned a melting point of 115 to 122 °C.
As for `CCOCn1nccc1C(=O)c1ccc(O)c(Cl)c1Cl`, the figure is 115 to 117 °C; as for `Cc1cc([N+](=O)[O-])ccc1N=C1C2CC3CC(C2)CC(C3)N1C1CCCC1`, 149 to 152 °C; as for `CSc1ccc(NC(=O)Nc2cc(-c3c(-c4ccc(F)c(C)c4)nc4cccnn34)ccn2)cc1`, 219 to 220 °C.
`CS(=O)(=O)c1ccc(Cl)c(C(=O)Nc2ccc(-n3nc(C(F)(F)F)cc3C3CC3)cc2)c1` had a melting point of 132 to 135 °C.
On to `Cc1c(C#N)c(-c2ccc(C#N)cc2)c(C)n1Cc1ccc(Cl)c(COC(=O)CCC(=O)O)c1`, for which the melting point lay within 149 to 151 °C.
The compound `COc1cc(/C=C2/C(=O)OC(=O)C2=C(C)C)cc(OC)c1` displayed a melting point of 161 to 162 °C.
`Cc1ccc(-c2coc3c(O)c(O)ccc3c2=O)cc1` had a melting point of 225 °C.
For the compound `CCOC(=O)C1=C(c2ccc(-n3c(C)nc4cnccc43)nc2)NC(C)=C(C(=O)Nc2ccccn2)C1c1ccccc1Cl` (centres undefined), the melting point was 242 to 243 °C.
With `O=Cc1cn(-c2ccc(Cl)cc2)nc1-c1ccc([N+](=O)[O-])o1` the figure was 192 to 193 °C.
`COc1cc2c(cc1OC)N(C)C(=O)CN=C2c1cncc2ccccc12` gave a melting point of 131 to 135 °C.
With `CC(=O)c1sc(N2CCN(CCCC(F)(F)F)C2=O)nc1C`, the melting point was in the range of 108 to 110 °C.
As for `O=c1[nH]c2c(O)cccc2c(=O)n1CCCN1CC=C(c2ccc(Cl)cc2)CC1`, the melting point fell in the range of 284 to 286 °C.
The compound `CN(C)C(=O)n1nc(C(C)(C)C)cc1S(C)(=O)=O` yielded a melting point of 126 to 128 °C.
With `CC(C)(C)N1CC(COc2cccc3c2SCCC3)OC1=O` (centres undefined) the figure was 90 °C; with `Cc1ccc(OCC(O)CCCl)cc1` (centres undefined), 62 to 64 °C; with `CCOC(=O)[C@H](C)Oc1ccc2cc(Br)ccc2c1`, 72 to 74 °C.
Compound `CS(=O)(=O)c1ccc(C(=O)N[C@H]2CC[C@H](CCN3CCN(c4nccc5c4OCC5)CC3)CC2)s1` displayed a melting point of 212 °C.
With `CCCCOc1ccc(C(=O)Nc2ccc3cc(CN4CCCC4)cnc3c2C)cc1`, the melting point turned out to be 161 °C.
`O=c1c2c(Cc3ccc(F)cc3)n[nH]c2c2cccnc2n1-c1cccc(C(F)(F)F)c1` displayed a melting point of 243 to 245 °C.
With `Cc1ccc(C)c2c1OCc1ccccc1C2C(=O)Nc1c(C(C)C)cccc1C(C)C` (centres undefined) the figure was 149 to 150 °C; with `O=C(C=Cc1cccnc1)NCCCCC1CCN(Cc2ccccc2)CC1`, 88 to 90 °C; with `CC(C)(C)OC(=O)N1C[C@@H](F)C[C@H]1C(=O)O`, 158 to 159 °C.
Compound `CC(=O)SCSc1c[nH]nn1` yielded a melting point of 88 to 89 °C.
`COc1ccc2c(c1)S(=O)(=O)c1ccccc1C(=S)N2`: the melting point lay in the range of 250 to 252 °C.
`Cc1cn(Nc2ccncc2F)c2ccc(OCc3ccccc3)cc12` gave a melting point of 210 to 213 °C.
In turn, `CCCn1cc(NC(=O)C(N)c2ccc3c(c2)C(C)(C)CCC3(C)C)cc1C(=O)OC` (centres undefined) gave a melting point of 152 to 153 °C.
As for `Nc1ccc2c(c1)C(C(=O)Oc1ccccc1)CCC2` (centres undefined), the figure is 89 to 90 °C; as for `Cc1noc(C)c1-c1ccc2c(c1)ncc1ncn(-c3ccccc3C(C)(C)C)c12`, 216 °C; as for `CNC(=O)N(O)CCNC(=O)c1cccc(Oc2ccccc2)c1`, 161 to 162 °C.
As for `CC(=O)N[C@H]1CCN(C(=O)c2ccc(-c3[nH]nc4c3C(=O)c3c(NC(=O)NN5CCOCC5)cccc3-4)s2)C1`, the figure is 264 to 265 °C; as for `c1ccc(COc2ccccc2OCCNCCCNc2ncccn2)cc1`, 90.1 °C.
With `CNC(C)=C(C#N)C(=O)c1ccc(Cl)cc1` the figure was 152 °C; with `COc1ccc(C(=O)Nc2ccc(Cl)c(Cl)c2)cc1NCc1cccs1`, 178 to 180 °C; with `CCCCN1C(=O)NC(=C(C)C)C1=O`, 130 °C.
Turning to `Cc1cccc(NC(=O)NCC(=O)N(Cc2ccccc2)c2ccccc2)c1`, the melting point came to 175 °C.
`CCCCCCCC(=O)OC(C)OC1=C(C(=O)Nc2ccccn2)N(C)S(=O)(=O)c2ccccc21` (centres undefined): the melting point was 90 to 91 °C.
`O=C(Nc1cccc2c3c(oc12)CCC=C3)c1c(Cl)cccc1Cl` came in with a melting point of 165 to 167 °C.
With `O=Cc1cc(-n2nnnc2C(F)(F)F)ccc1OCC1CC1` the figure was 80 to 82 °C; with `N#CCOC(=O)CCCCc1c[nH]c2ccccc12`, 76 °C.
Compound `Cn1cc2c3c(ccc2n1)CCC3=CC#N` had a melting point of 189 to 192 °C.
The compound `CC(O)(C(O)C(O)=Cc1ccccc1)C(O)(Br)C(O)C(O)=Cc1ccccc1` (centres undefined) showed a melting point of 277 to 279 °C.
As for `Oc1cccc2c1CC[C@H]1[C@@H]2CCN1CCC1CCCCC1`, the figure is 130 to 133 °C.
In turn, `COCCNC(=O)c1cccc(-c2cccc3cc(Cc4cccc(F)c4)sc23)c1` returned a melting point of 108 to 110 °C.
